According to PubChem BioAssay AID330 (DTP/NCI, 2004):
Where “and” joins values, the source holds several entries; their conditions need not be identical. Equal values may be shown once. Inconclusive results and toxic doses are left out. The calls were made as follows: active = survival T/C of 150% or more; inactive = T/C below 125% in these data.

System: P388 leukemia ip, CD2F1 mice, survival T/C
Test: NCI In Vivo Anticancer Drug Screen. Data for tumor model P388 Leukemia (intraperitoneal) in CD2F1 (CDF1) mice
Settings: endpoint: median survival time, higher = longer survival
Summary of the method: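 Mice carrying the transplanted tumor received test compound or vehicle. Survival was recorded in each group, and the value is the treated-group measurement divided by that of the vehicle-treated control group.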

[1] = dose: 12.5 mg/kg/injection, schedule: Q01DX009 (ip), vehicle: saline with Tween-80
[2] = dose: 25.0 mg/kg/injection, schedule: Q01DX009 (ip), vehicle: saline with Tween-80
[3] = dose: 50.0 mg/kg/injection, schedule: Q01DX009 (ip), vehicle: saline with Tween-80
[4] = dose: 30.0 mg/kg/injection, schedule: Q01DX005 (ip), vehicle: Klucel (hydroxypropylcellulose) (HPC)
[5] = dose: 60.0 mg/kg/injection, schedule: Q01DX005 (ip), vehicle: Klucel (hydroxypropylcellulose) (HPC)
[6] = dose: 25.0 mg/kg/injection, schedule: Q01DX009 (ip), vehicle: other
[7] = dose: 100.0 mg/kg/injection, schedule: Q01DX001 (ip), vehicle: Klucel (hydroxypropylcellulose) (HPC)
[8] = dose: 200.0 mg/kg/injection, schedule: Q01DX001 (ip), vehicle: Klucel (hydroxypropylcellulose) (HPC)
[9] = dose: 400.0 mg/kg/injection, schedule: Q01DX001 (ip), vehicle: Klucel (hydroxypropylcellulose) (HPC)
[10] = dose: 100.0 mg/kg/injection, schedule: Q01DX009 (ip), vehicle: saline with Tween-80

Measured: T/C

COc1ccc2nc3ccccc3c(NCCCCCCCCNc3c4ccccc4nc4ccc(OC)cc34)c2c1
inactive: dose: 0.63 mg/kg/injection, schedule: Q01DX009 (ip), vehicle: other 113 % of control | dose: 1.25 mg/kg/injection, schedule: Q01DX009 (ip), vehicle: other 109 % of control | dose: 2.5 mg/kg/injection, schedule: Q01DX009 (ip), vehicle: other 104 % of control | dose: 3.75 mg/kg/injection, schedule: Q01DX009 (ip), vehicle: other 109 % of control | dose: 5.0 mg/kg/injection, schedule: Q01DX009 (ip), vehicle: other 113 % of control | dose: 7.5 mg/kg/injection, schedule: Q01DX009 (ip), vehicle: other 120 % of control

CSc1nc2ccccc2[nH]1
inactive: dose: 6.25 mg/kg/injection, schedule: Q01DX009 (ip), vehicle: saline with Tween-80 101 % of control | [1] 106 % of control | [2] 106 % of control | [3] 110 % of control

COc1ccc(N2C(=O)CCSC23C(=O)N(CN2CCOCC2)c2ccccc23)cc1 (configuration not stated)
inactive: dose: 50.0 mg/kg/injection, schedule: Q01DX005 (ip), vehicle: saline with Tween-80 103 % of control | dose: 100.0 mg/kg/injection, schedule: Q01DX005 (ip), vehicle: saline with Tween-80 106 % of control | dose: 200.0 mg/kg/injection, schedule: Q01DX005 (ip), vehicle: saline with Tween-80 95 % of control

CCN(CC)CCCC(C)Nc1ccc2cc(OC)ccc2n1 (configuration not stated)
inactive: dose: 6.25 mg/kg/injection, schedule: Q01DX005 (ip), vehicle: saline 103 % of control | dose: 12.5 mg/kg/injection, schedule: Q01DX005 (ip), vehicle: saline 103 % of control

NCC[Se][Se]CCN
inactive: dose: 1.56 mg/kg/injection, schedule: Q01DX009 (ip), vehicle: saline 98 % of control | dose: 3.12 mg/kg/injection, schedule: Q01DX009 (ip), vehicle: saline 98 % of control | dose: 6.25 mg/kg/injection, schedule: Q01DX009 (ip), vehicle: saline 104 % of control

Cc1ccc2ccccc2c1C(=N)c1cc2ccccc2c2ccccc12
inactive: dose: 50.0 mg/kg/injection, schedule: Q01DX005 (ip), vehicle: Klucel (hydroxypropylcellulose) (HPC) 105 % of control | dose: 100.0 mg/kg/injection, schedule: Q01DX005 (ip), vehicle: Klucel (hydroxypropylcellulose) (HPC) 87 % of control

CCC[CH2][Sn]1([CH2]CCC)[O]C(=O)c2c(Cl)c(Cl)c(Cl)c(Cl)c2C(=O)[O]1
inactive: dose: 1.56 mg/kg/injection, schedule: Q01DX005 (ip), vehicle: saline with Tween-80 110 % of control and 115 % of control | dose: 3.13 mg/kg/injection, schedule: Q01DX005 (ip), vehicle: saline with Tween-80 119 % of control and 120 % of control | dose: 6.25 mg/kg/injection, schedule: Q01DX005 (ip), vehicle: saline with Tween-80 119 % of control and 120 % of control

CCc1nc(N)nc(N)c1-c1ccc(Cl)c(N=CN(C)C)c1
inactive: dose: 60.0 mg/kg/injection, schedule: Q01DX005 (ip), vehicle: saline with Tween-80 102 % of control | dose: 120.0 mg/kg/injection, schedule: Q01DX005 (ip), vehicle: saline with Tween-80 108 % of control | dose: 240.0 mg/kg/injection, schedule: Q01DX005 (ip), vehicle: saline with Tween-80 108 % of control

O=C1CCSC(=S)N1c1ccccc1C(F)(F)F
inactive: dose: 50.0 mg/kg/injection, schedule: Q01DX009 (ip), vehicle: suspension in saline 90 % of control | dose: 100.0 mg/kg/injection, schedule: Q01DX009 (ip), vehicle: suspension in saline 92 % of control | dose: 200.0 mg/kg/injection, schedule: Q01DX009 (ip), vehicle: suspension in saline 99 % of control

CN(C)C1=NC(N(C)C)=C2C=CC=C12
inactive: dose: 15.0 mg/kg/injection, schedule: Q01DX005 (ip), vehicle: Klucel (hydroxypropylcellulose) (HPC) 103 % of control | [4] 97 % of control | [5] 96 % of control

Cc1cc2nc(/N=C/c3nc(O)c(C)[nH]3)[nH]c2cc1C
inactive: [4] 103 % of control | [5] 98 % of control | dose: 120.0 mg/kg/injection, schedule: Q01DX005 (ip), vehicle: Klucel (hydroxypropylcellulose) (HPC) 99 % of control | dose: 240.0 mg/kg/injection, schedule: Q01DX005 (ip), vehicle: Klucel (hydroxypropylcellulose) (HPC) 104 % of control

CCOC(=O)Cc1nnc(N)s1
inactive: dose: 50.0 mg/kg/injection, schedule: Q04DX003 (ip), vehicle: saline 94 % of control | dose: 100.0 mg/kg/injection, schedule: Q04DX003 (ip), vehicle: saline 95 % of control | dose: 200.0 mg/kg/injection, schedule: Q04DX003 (ip), vehicle: saline 110 % of control | dose: 400.0 mg/kg/injection, schedule: Q04DX003 (ip), vehicle: saline 104 % of control

COc1cc2ccc(/C=C\[N+](=O)[O-])cc2cc1OC
inactive: dose: 3.13 mg/kg/injection, schedule: Q01DX009 (ip), vehicle: other 105 % of control | dose: 6.25 mg/kg/injection, schedule: Q01DX009 (ip), vehicle: other 108 % of control | dose: 12.5 mg/kg/injection, schedule: Q01DX009 (ip), vehicle: other 107 % of control | [6] 108 % of control

Nc1nnn(CCCl)n1
inactive: [7] 88 % of control | [8] 88 % of control

CCCCCCCCCCCCCCCCS(=O)CC(O)COC(=O)c1ccc(C(=O)OCC(O)CS(=O)CCCCCCCCCCCCCCCC)cc1 (configuration not stated)
inactive: [6] 104 % of control | dose: 50.0 mg/kg/injection, schedule: Q01DX009 (ip), vehicle: other 114 % of control | dose: 100.0 mg/kg/injection, schedule: Q01DX009 (ip), vehicle: other 122 % of control

CCCCC(=O)CCCCCCCCC(O)CC(=O)OCC (configuration not stated)
inactive: dose: 100.0 mg/kg/injection, schedule: Q04DX003 (ip), vehicle: Klucel (hydroxypropylcellulose) (HPC) 100 % of control | dose: 200.0 mg/kg/injection, schedule: Q04DX003 (ip), vehicle: Klucel (hydroxypropylcellulose) (HPC) 103 % of control | dose: 400.0 mg/kg/injection, schedule: Q04DX003 (ip), vehicle: Klucel (hydroxypropylcellulose) (HPC) 102 % of control

CC1(C)C(=O)C(/C=C\c2ccccc2[N+](=O)[O-])Cc2ccccc21 (configuration not stated)
inactive: [7] 100 % of control | [8] 99 % of control | [9] 100 % of control

COc1c(C)cc(C)c(CBr)c1-c1c(CBr)c(C)cc(C)c1OC
inactive: [7] 95 % of control | [8] 93 % of control | [9] 88 % of control

Cc1ccc(SSC(=S)Nc2ccccc2)cc1
inactive: [1] 93 % of control | [2] 90 % of control | [3] 100 % of control and 114 % of control | [10] 114 % of control

c1ccc2c(c1)CCCN2c1nc(N2CCCC2)nc(N2CCOCC2)n1
inactive: dose: 50.0 mg/kg/injection, schedule: Q01DX009 (ip), vehicle: saline 99 % of control | dose: 100.0 mg/kg/injection, schedule: Q01DX009 (ip), vehicle: saline 89 % of control | dose: 200.0 mg/kg/injection, schedule: Q01DX009 (ip), vehicle: saline 92 % of control

CCC(C)Sc1nc(N)nc2c1ncn2C1OC(CO)C(O)C1O (configuration not stated)
inactive: dose: 44.0 mg/kg/injection, schedule: Q01DX009 (ip), vehicle: saline with Tween-80 100 % of control | dose: 66.0 mg/kg/injection, schedule: Q01DX009 (ip), vehicle: saline with Tween-80 100 % of control | [10] 95 % of control | dose: 150.0 mg/kg/injection, schedule: Q01DX009 (ip), vehicle: saline with Tween-80 104 % of control | dose: 176.0 mg/kg/injection, schedule: Q04DX003 (ip), vehicle: saline with Tween-80 114 % of control | dose: 200.0 mg/kg/injection, schedule: Q01DX009 (ip), vehicle: saline with Tween-80 120 % of control | dose: 264.0 mg/kg/injection, schedule: Q04DX003 (ip), vehicle: saline with Tween-80 123 % of control
